Measurements reported in PubChem BioAssay AID248 (DTP/NCI, 2004).
Inconclusive results and toxic doses are left out. Cut-off read from the data, not from the text of the source: active = T/C of 150% or more; inactive = T/C below 125%.

Tested on: L1210 leukemia ip in BDF1 mice, survival T/C
Assay: NCI In Vivo Anticancer Drug Screen. Data for tumor model L1210 Leukemia (intraperitoneal) in B6D2F1 (BDF1) mice
Details: endpoint: mean survival time, higher = longer survival
Outline: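 Mice bearing the transplanted tumor received compound or vehicle. Survival of the treated group was divided by that of the vehicle-treated control group to give the ratio.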

[1] = dose: 100.0 mg/kg/injection, schedule: Q04DX003 (ip), vehicle: Klucel (hydroxypropylcellulose) (HPC)
[2] = dose: 200.0 mg/kg/injection, schedule: Q04DX003 (ip), vehicle: Klucel (hydroxypropylcellulose) (HPC)
[3] = dose: 50.0 mg/kg/injection, schedule: Q01DX009 (ip), vehicle: saline with Tween-80
[4] = dose: 100.0 mg/kg/injection, schedule: Q01DX009 (ip), vehicle: saline with Tween-80
[5] = dose: 200.0 mg/kg/injection, schedule: Q01DX009 (ip), vehicle: saline with Tween-80
[6] = dose: 100.0 mg/kg/injection, schedule: Q04DX003 (ip), vehicle: saline with Tween-80
[7] = dose: 200.0 mg/kg/injection, schedule: Q04DX003 (ip), vehicle: saline with Tween-80
[8] = dose: 400.0 mg/kg/injection, schedule: Q01DX009 (ip), vehicle: saline with Tween-80
[9] = dose: 400.0 mg/kg/injection, schedule: Q04DX003 (ip), vehicle: saline with Tween-80
[10] = dose: 100.0 mg/kg/injection, schedule: Q01DX009 (ip), vehicle: Klucel (hydroxypropylcellulose) (HPC)
[11] = dose: 200.0 mg/kg/injection, schedule: Q01DX009 (ip), vehicle: Klucel (hydroxypropylcellulose) (HPC)
[12] = dose: 400.0 mg/kg/injection, schedule: Q04DX003 (ip), vehicle: Klucel (hydroxypropylcellulose) (HPC)
[13] = dose: 50.0 mg/kg/injection, schedule: Q04DX003 (ip), vehicle: saline with Tween-80
[14] = dose: 100.0 mg/kg/injection, schedule: Q01DX009 (ip), vehicle: saline
[15] = dose: 200.0 mg/kg/injection, schedule: Q01DX009 (ip), vehicle: saline
[16] = dose: 400.0 mg/kg/injection, schedule: Q01DX009 (ip), vehicle: saline
[17] = dose: 100.0 mg/kg/injection, schedule: Q01DX001 (ip), vehicle: Klucel (hydroxypropylcellulose) (HPC)
[18] = dose: 200.0 mg/kg/injection, schedule: Q01DX001 (ip), vehicle: Klucel (hydroxypropylcellulose) (HPC)
[19] = dose: 400.0 mg/kg/injection, schedule: Q01DX001 (ip), vehicle: Klucel (hydroxypropylcellulose) (HPC)
[20] = dose: 100.0 mg/kg/injection, schedule: Q04DX003 (ip), vehicle: saline
[21] = dose: 200.0 mg/kg/injection, schedule: Q04DX003 (ip), vehicle: saline
[22] = dose: 400.0 mg/kg/injection, schedule: Q04DX003 (ip), vehicle: saline
[23] = dose: 100.0 mg/kg/injection, schedule: Q01DX009 (ip), vehicle: saline sonified
[24] = dose: 200.0 mg/kg/injection, schedule: Q01DX009 (ip), vehicle: saline sonified
[25] = dose: 400.0 mg/kg/injection, schedule: Q01DX009 (ip), vehicle: saline sonified

Measured: T/C

N#Cc1sc2ccccc2c1CBr
inactive: dose: 6.25 mg/kg/injection, schedule: Q01DX009 (ip), vehicle: Klucel (hydroxypropylcellulose) (HPC) 93 % of control | dose: 12.5 mg/kg/injection, schedule: Q01DX009 (ip), vehicle: Klucel (hydroxypropylcellulose) (HPC) 94 % of control | dose: 25.0 mg/kg/injection, schedule: Q01DX009 (ip), vehicle: Klucel (hydroxypropylcellulose) (HPC) 100 % of control | [1] 100 % of control | [2] 94 % of control

COc1ccc(N=Nc2nccs2)c(O)c1
inactive: [3] 102 % of control | [4] 98 % of control | [5] 109 % of control

O=C(c1cccc(C(=O)n2c3c(c4ccccc42)CCCC3)c1)n1c2c(c3ccccc31)CCCC2
inactive: [4] 90 % of control | [6] 95 % of control | [5] 90 % of control | [7] 98 % of control | [8] 94 % of control | [9] 88 % of control

CCSc1nc(N)c(C(N)=O)cc1C#N
inactive: [10] 95 % of control | [1] 101 % of control | [11] 95 % of control | [2] 98 % of control | [12] 97 % of control

O=[N+]([O-])c1ccc(C[N+]23CCN(CC2)CC3)cc1
inactive: [3] 96 % of control | [13] 106 % of control | [4] 102 % of control | [6] 106 % of control | [7] 101 % of control

N#CSCc1ccc(CSC#N)c(Cl)c1
inactive: dose: 1.56 mg/kg/injection, schedule: Q01DX009 (ip), vehicle: saline sonified 97 % of control | dose: 1.56 mg/kg/injection, schedule: Q04DX003 (ip), vehicle: saline with Tween-80 101 % of control | dose: 3.13 mg/kg/injection, schedule: Q01DX009 (ip), vehicle: saline sonified 109 % of control | dose: 3.13 mg/kg/injection, schedule: Q04DX003 (ip), vehicle: saline with Tween-80 109 % of control | dose: 6.25 mg/kg/injection, schedule: Q01DX009 (ip), vehicle: saline sonified 111 % of control | dose: 6.25 mg/kg/injection, schedule: Q04DX003 (ip), vehicle: saline with Tween-80 109 % of control

C1COC(C2OCCO2)C1 (stereo unspecified)
inactive: [14] 103 % of control | [15] 90 % of control | [16] 95 % of control

O=C(Nc1ccccc1)Oc1cccnc1
inactive: [17] 98 % of control | [18] 100 % of control | [19] 98 % of control

CC(=O)CCC(=O)OC(C)(C)CN
inactive: [3] 102 % of control | [13] 99 % of control | [4] 103 % of control | [6] 87 % of control | [5] 107 % of control | [7] 91 % of control | [8] 103 % of control | [9] 96 % of control

CC(C(=O)C(Cc1ccccc1)c1ccccc1)C1CCC2C3C(OC=O)CC4CC(OC=O)CCC4(C)C3CC(OC=O)C12C (stereo unspecified)
inactive: dose: 12.5 mg/kg/injection, schedule: Q01DX009 (ip), vehicle: saline with Tween-80 90 % of control | dose: 25.0 mg/kg/injection, schedule: Q01DX009 (ip), vehicle: saline with Tween-80 87 % of control | [3] 90 % of control | [4] 91 % of control | [5] 88 % of control

CCOC(=O)c1ccc([N+](=O)[O-])s1
inactive: [20] 100 % of control | [21] 97 % of control | [22] 111 % of control

Nc1nc2nnc(CNc3ccc(C(=O)NC(CCC(=O)O)C(=O)O)cc3)nc2c(=O)[nH]1 (stereo unspecified)
inactive: [17] 94 % of control | [18] 103 % of control

C=CC1CC(=O)N1C (stereo unspecified)
inactive: [20] 100 % of control | [21] 110 % of control | [22] 112 % of control

Cc1ccc(-n2c(=O)c(N=Nc3ccccc3C)c(O)n(-c3ccccc3C)c2=S)cc1
inactive: dose: 37.5 mg/kg/injection, schedule: Q01DX001 (ip), vehicle: Klucel (hydroxypropylcellulose) (HPC) 95 % of control | dose: 75.0 mg/kg/injection, schedule: Q01DX001 (ip), vehicle: Klucel (hydroxypropylcellulose) (HPC) 103 % of control | dose: 150.0 mg/kg/injection, schedule: Q01DX001 (ip), vehicle: Klucel (hydroxypropylcellulose) (HPC) 100 % of control

N#C/C(=N/O)c1ccccn1
inactive: [10] 96 % of control | [14] 100 % of control | [11] 100 % of control | [15] 107 % of control | [16] 92 % of control

Cc1c[n+]([O-])ccc1N=NN(C)c1ccccc1C
inactive: dose: 18.75 mg/kg/injection, schedule: Q04DX002 (ip), vehicle: saline with Tween-80 102 % of control | dose: 37.5 mg/kg/injection, schedule: Q04DX002 (ip), vehicle: saline with Tween-80 105 % of control | dose: 75.0 mg/kg/injection, schedule: Q04DX002 (ip), vehicle: saline with Tween-80 102 % of control | dose: 200.0 mg/kg/injection, schedule: Q04DX002 (ip), vehicle: saline with Tween-80 86 % of control

CCN(CC)C(=O)Nc1cccc(OC(=O)NC)c1
inactive: [6] 99 % of control | [7] 98 % of control

O=C1CN(CCN2CC(=O)N(c3ccccc3)C2=S)C(=S)N1Cc1ccccc1
inactive: [3] 96 % of control | [4] 90 % of control | [5] 94 % of control

CC(=O)c1scc2c1CCCC2
inactive: dose: 25.0 mg/kg/injection, schedule: Q01DX001 (ip), vehicle: saline with Tween-80 94 % of control | dose: 50.0 mg/kg/injection, schedule: Q01DX001 (ip), vehicle: saline with Tween-80 96 % of control | dose: 100.0 mg/kg/injection, schedule: Q01DX001 (ip), vehicle: saline with Tween-80 96 % of control

C=C1C(=O)OC2CC(C)CCC/C(CO)=C/C(OC(=O)/C(=C/CO)CO)C12 (stereo unspecified)
inactive: dose: 3.75 mg/kg/injection, schedule: Q04DX003 (ip), vehicle: saline 89 % of control | dose: 4.9 mg/kg/injection, schedule: Q01DX009 (ip), vehicle: acetone 93 % of control | dose: 7.5 mg/kg/injection, schedule: Q01DX001 (ip), vehicle: acetone 97 % of control | dose: 7.5 mg/kg/injection, schedule: Q01DX009 (ip), vehicle: acetone 98 % of control | dose: 7.5 mg/kg/injection, schedule: Q04DX003 (ip), vehicle: saline 100 % of control | dose: 11.0 mg/kg/injection, schedule: Q01DX009 (ip), vehicle: acetone 93 % of control | dose: 15.0 mg/kg/injection, schedule: Q01DX001 (ip), vehicle: acetone 103 % of control | dose: 15.0 mg/kg/injection, schedule: Q04DX003 (ip), vehicle: saline 99 % of control

COC(=O)CC(=O)c1ccc(OCCOc2ccc(C(C)(C)CC(C)(C)C)cc2)c([N+](=O)[O-])c1
inactive: [23] 91 % of control | [1] 93 % of control | [24] 96 % of control | [2] 96 % of control | [25] 95 % of control | [12] 93 % of control

O=C1Cc2cccc3cccc1c23
inactive: [6] 102 % of control | [7] 106 % of control | [9] 104 % of control

O=C(O)CC1CC=CCC1CC(=O)O (stereo unspecified)
inactive: [23] 95 % of control | [24] 101 % of control | [25] 104 % of control

C[N+](C)(CCOC(=O)C1C2CC3OC(=O)C1C3C2)Cc1ccccc1 (stereo unspecified)
inactive: [20] 101 % of control

CC(=O)Nc1cccc2nsnc12
inactive: [1] 100 % of control | [2] 93 % of control

NC(=S)N/N=C(/C(=O)O)c1ccc([N+](=O)[O-])cc1
inactive: [17] 93 % of control | [1] 104 % of control | [18] 115 % of control | [2] 98 % of control | [19] 96 % of control | [12] 93 % of control
